Data published in patent publication US20250114436A1, “DYNAMIC-COVALENT HYDROGELS WITH GLUCOSE-SPECIFIC AND GLUCOSE-RESPONSIVE DIBORONATE CROSSLINKING” (UNIVERSITY OF NOTRE DAME DU LAC, priority 2022, published 2025).

Tests used:
[1] = Isothermal titration calorimetry (ITC), fructose binding
Method: (§1) The binding affinities (Keq) between different small molecule PBAs and model analytes (FIG. 2) were measured through isothermal titration calorimetry (ITC). All titration experiments were performed at 298 K on a PEAQ-ITC calorimeter (MicroCal, Inc.) in degassed pH 7.4 PBS buffer, using a 38 μL syringe and 200 μL cells and consisting of 19 injections. The measurements were performed by titrating glucose, fructose, sodium lactate, or Diolsm from the syringe into a solution of small molecule variants of DiPBAsm, PyPBAsm, or FPBAsm loaded in the cell. In all titration experiments, the cell concentration was 1 mM, while the analyte concentrations in the syringe were varied according to experimental optimization. All raw data were corrected by subtraction of a dilution measurement of the titrated analytes into buffer and were then analyzed and graphed using the integrated public-domain software packages of NIPIC, SEDPHAT, and GUSSI according to a published protocol. See Brautigam et al., Nat. Protoc. 11(5): 882-894 (2016).
(§2) To first quantify the affinities of binding for these different PBA motifs to glucose, related analytes, and model diols, a set of small molecules (FIG. 2) were synthesized for isothermal titration calorimetry (ITC) studies. […] By comparison, the commonly used FPBA motif had Keq for glucose binding of only 8.6 M^−1. […] Accordingly, concerns over low-affinity glucose-binding and poor glucose selectivity of traditional PBAs are supported by these ITC data, with both issues seemingly overcome using DiPBA chemistry. […] Finally, to explore the likely outcomes of using each of these PBA motifs in the context of dynamic-covalent networks a model diol (GdL-Diol) was prepared from reaction of glucono-δ-lactone (GdL) with benzylamine. The Keq of binding for each PBA motif to this model diol were nearly identical (˜5×10^3 M^−1); this finding confirms similar 1:1 binding stoichiometry between all three PBA chemistries studied here and the GdL-derived diol chemistry commonly used in preparing dynamic-covalent PBA-diol networks.

[2] = Isothermal titration calorimetry (ITC), glucose binding; details: for Keq for binding to glucose: 298 K, pH 7.4 PBS
Method: as §1, §2

[3] = Acid-base titration for pKa determination; type: physicochemical; details: small molecule
Method: A 0.01 M stock solution of the PBA of interest was prepared by dissolving 0.2 mmol of each PBA in 20 mL DI water. The solution was then titrated with 0.005 M NaOH solution under constant stirring with pH monitoring.
Previously reported diboronate glucose sensors include architectures of two phenylboronic acids attached to an aryl core via charged ammonium linkers. In a variation on this approach, the DiPBA motif explored here has introduced adjacent charge via pyridine-based phenylboronic acid structures (FIG. 1B). Besides conserving adjacent positive charge, the topology of this novel design was also intended to afford a more rigid pocket for simultaneous glucose binding by both boronates (FIG. 2B). Details for the synthesis and molecular characterization of this novel DiPBA group, along with all other synthetic small molecules and macromers, are reported in the Online Supporting Information. As a control for this glucose-binding motif, a single pyridine-PBA (PyPBA) was also synthesized. DiPBA and PyPBA motifs were compared in this work to a fluorine-substituted PBA motif (FPBA) that has been routinely reported in glucose-responsive materials and therapeutic constructs.

[4] = Isothermal titration calorimetry (ITC), lactate binding
Method: as §1, §2

[5] = tested on: streptozotocin (STZ)-induced diabetic mice; assay: Blood glucose control in vivo with glucose tolerance tests; design: species or system male C57BL6/J mice; details: free insulin 4 IU/kg
Method: To evaluate the performance hydrogels for blood glucose control, male C57BL6/J mice (8 weeks old, ˜25 g/mouse; Jackson Laboratory) were induced to be insulin deficient using streptozotocin (STZ). Mice were fasted for 4 h, following which a single intraperitoneal (i.p.) injection of STZ at a dose of 150 mg/kg was administered. Following an additional 30 min fast, food was returned. Seven days following STZ treatment, insulin-deficient diabetes was verified using hand-held blood glucose meters (CVS brand) with unfasted blood glucose (BG) levels ensured to be above 600 mg/dL for study inclusion. Mice were then fasted for 12 h, and those with BG >550 mg/dL were randomly divided into 4 groups (n=5-6/group). […] BG level were continuously monitored for 3 h after treatment. […] BG were subsequently monitored for 3 h. […] Areas under the curve (AUC) were calculated using the trapezoidal rule and statistical analyses were performed to compare DiPBA and FPBA treatment groups using GraphPad Prism v9.0, with significance obtained using a Student's t-test. […] Glucose levels were monitored over time using handheld glucometers (FIG. 11B). […]

Row | Compound | fructose binding compared to FPBA / traditional PBA [1] | Keq for binding to glucose [2] | pKa ([3]; DI water titrated with 0.005 M NaOH) | lactate binding compared to FPBA / traditional PBA [4] | Keq for glucose relative to that for fructose (times higher) ([1]; pH 7.4 PBS) | glucose affinity relative to a traditional PBA motif (times higher) [2] | pKa1 [3] | pKa2 [3] | Keq for glucose relative to that for lactate (times higher) ([4]; pH 7.4 PBS) | blood glucose response to first i.p. glucose tolerance test ([5]; GTT 1.25 g/kg glucose at 180 min) | time to blood glucose nadir ([5]; s.c.)
1 | COC(=O)c1cccc(C[n+]2cccc(B(O)O)c2)c1 [PyPBA] | reduced | 164.7 M⁻¹ | 4.41 | reduced |  |  |  |  |  |  | 
2 | COC(=O)c1cc(C[n+]2cccc(B(O)O)c2)ccc1C[n+]1cccc(B(O)O)c1 [DiPBA] | reduced | 1295 M⁻¹ |  | reduced | 1.7 times | 150 times | 4.53 | 7.45 | 29 times |  | 
3 | insulin: Recombinant Human Insulin, free insulin control, 4 IU/kg s.c. |  |  |  |  |  |  |  |  |  | dramatically increased blood glucose without any subsequent correction | ~1 h
